Key:
PHD2181-417 = PHD2181-417 (Homo sapiens (Human), UniProt Q9GZT9); assay: PHD enzymatic assay ([14C]-succinic acid production); type: biochemical; conditions: purified PHD2181-417, HIF-1α peptide substrate, 30 min pre-incubation; average of results
How it was run: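 Recombinant human PHD2 (aa 181-417, E. coli-expressed, tags cleaved) with peptide substrate (10 μM) and [5-14C]-2-oxoglutarate in Tris pH 7.5 with catalase, DTT and ascorbate, 10 min reaction after 30 min compound pre-incubation; compounds at 100 μM final, 1% DMSO. [14C]-succinate separated by DNP precipitation and beta-counted; IC50 from three-parameter logistic fit.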

HIF1-α, Hela cells = assay: Cellular assay for HIF1-α in Hela cells; type: cell-based; conditions: Homo sapiens, 100 μM compound, 6 hours, percent of HIF stimulation relative to assay control compound 7-[(4-Chloro-phenyl)-(5-methyl-isoxazol-3-ylamino)-methyl]-quinolin-8-ol
Procedure: Cellular Assay for HIF1-α
Hela cells (ATCC, Manassas, Va.) were plated in 96-well plates at 20,000 cells per well in 100 μl of DMEM containing 10% fetal bovine serum, 1% non-essential amino acids, 50 IU/mL of penicillin and 50 μg/mL of streptomycin (all cell culture reagents from Invitrogen, Carlsbad, Calif.). 24 hours after plating, changed media to 100 ul of DMEM without 10% fetal bovine serum, 1.1 μl of the stock solution for each compound was added and incubated for 6 hours. All compounds were tested with a final compound concentration of 100 μM. The supernatant was removed and the cells were lysed in 55 μl of MSD lysis buffer containing protease inhibitors. 50 μl of the cell lysate was then transferred to a blocked MSD human HIF-1α detection plate (Meso-Scale Discovery, Gaithersburg, Md., as per manufacturers protocol), and incubated at room temperature on an orbital shaker for 2 hour. After 3 washes in PBS, 25 μl of 20 nM anti-HIF1α a detection antibody was added and incubated for 1 hour at room temperature on an orbital shaker. After 3 washes in PBS, 150 μl of 1× read buffer was added and the plate was then read on a MSD SECTOR instrument. Data was analyzed by determining the percent of HIF stimulation in the presence of 100 μM compound relative to an assay control compound, 7-[(4-Chloro-phenyl)-(5-methyl-isoxazol-3-ylamino)-methyl]-quinolin-8-ol.

[1] = system: Erythropoietin secretion, Hep-3B cells; assay: Cellular assay: EPO secretion in Hep-3B cells; type: cell-based; conditions: Homo sapiens, Hep3B, 100 μM compound, 24 hours, percent of EPO secretion relative to assay control compound 7-[(4-Chloro-phenyl)-(5-methyl-isoxazol-3-ylamino)-methyl]-quinolin-8-ol, read-out: Cellular % EPO Stimulation
How it was run: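 Compounds at 100 μM final were added to Hep-3B cells 24 h after plating and left for 24 h. Secreted EPO in supernatant measured by MSD electrochemiluminescence immunoassay. Reported as percent EPO secretion relative to an 8-hydroxyquinoline reference control compound.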

PHD2181-417, sequence (Q9GZT9 181-417): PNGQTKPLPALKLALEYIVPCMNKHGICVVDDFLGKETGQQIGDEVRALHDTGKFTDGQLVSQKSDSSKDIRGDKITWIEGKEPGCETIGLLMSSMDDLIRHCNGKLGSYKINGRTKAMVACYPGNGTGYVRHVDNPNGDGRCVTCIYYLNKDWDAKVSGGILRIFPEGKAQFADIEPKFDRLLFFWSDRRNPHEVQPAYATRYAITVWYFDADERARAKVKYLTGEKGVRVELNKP

SMILES	Enzyme pIC50 (PHD2181-417)	activation at 100 µM (HIF1-α, Hela cells)	activation at 100 µM [1]
Cc1cccc(C)c1Oc1cc2c(N3CCCN(C)CC3)nc(-n3cc(C(=O)O)cn3)nc2cc1F [Example 17, 1-(6-(2,6-Dimethylphenoxy)-7-fluoro-4-(4-methyl-1,4-diazepan-1-yl)quinazolin-2-yl)-1H-pyrazole-4-carboxylic acid]	6.7	47%	–
Cc1cccc(C)c1Oc1cc2c(N3CCSCC3)nc(-n3cc(C(=O)O)cn3)nc2cc1F [Example 18, 1-(6-(2,6-Dimethylphenoxy)-7-fluoro-4-thiomorpholinoquinazolin-2-yl)-1H-pyrazole-4-carboxylic acid]	7.0	15%	–
Cc1cccc(C)c1Oc1cc2c(N3CCC(O)CC3)nc(-n3cc(C(=O)O)cn3)nc2cc1F [Example 19, 1-(6-(2,6-Dimethylphenoxy)-7-fluoro-4-(4-hydroxypiperidin-1-yl)quinazolin-2-yl)-1H-pyrazole-4-carboxylic acid]	6.9	140%	–
CC(=O)NC1CCN(c2nc(-n3cc(C(=O)O)cn3)nc3cc(F)c(Oc4c(C)cccc4C)cc23)CC1 [Example 21, 1-(4-(4-Acetamidopiperidin-1-yl)-6-(2,6-dimethylphenoxy)-7-fluoroquinazolin-2-yl)-1H-pyrazole-4-carboxylic acid]	6.9	62%	–
O=C(O)c1cnn(-c2nc(Nc3ccccc3Cl)c3cc(C4CCCCC4)ccc3n2)c1 [Example 29, 1-(4-((2-Chlorophenyl)amino)-6-cyclohexylquinazolin-2-yl)-1H-pyrazole-4-carboxylic acid]	7.1	7.8%	–
N#CC1CCN(c2nc(-n3cc(C(=O)O)cn3)nc3ccc(C4CCCCC4)cc23)CC1 [Example 30, 1-(4-(4-Cyanopiperidin-1-yl)-6-cyclohexylquinazolin-2-yl)-1H-pyrazole-4-carboxylic acid]	6.9	77%	–
O=C(O)c1cnn(-c2nc(N3CCC(F)CC3)c3cc(C4CCCCC4)ccc3n2)c1 [Example 31, 1-(6-Cyclohexyl-4-(4-fluoropiperidin-1-yl)quinazolin-2-yl)-1H-pyrazole-4-carboxylic acid]	7.1	34%	–
CC(C)(C)Nc1nc(-n2cc(C(=O)O)cn2)nc2ccc(C3CCCCC3)cc12 [Example 36, 1-(4-(tert-Butylamino)-6-cyclohexylquinazolin-2-yl)-1H-pyrazole-4-carboxylic acid]	6.8	23%	–
O=C(O)c1cnn(-c2nc(NCC3CCCCC3)c3cc(C4CCCCC4)ccc3n2)c1 [Example 39, 1-(6-Cyclohexyl-4-((cyclohexylmethyl)amino)quinazolin-2-yl)-1H-pyrazole-4-carboxylic acid]	6.9	6.1%	–
CS(=O)(=O)Nc1nc(-n2cc(C(=O)O)cn2)nc2ccc(C3CCCCC3)cc12 [Example 40, 1-(6-Cyclohexyl-4-(methylsulfonamido)quinazolin-2-yl)-1H-pyrazole-4-carboxylic acid]	6.6	6.7%	–
O=C(O)c1cnn(-c2nc(N3CCCCCC3)c3ccc(Oc4ccccc4)cc3n2)c1 [Example 87, 1-(4-(Azepan-1-yl)-7-phenoxyquinazolin-2-yl)-1H-pyrazole-4-carboxylic acid]	–	20%	–
CCCN(CCC)c1nc(-n2cc(C(=O)O)cn2)nc2cc(Oc3ccccc3)ccc12 [Example 93, 1-(4-(Dipropylamino)-7-phenoxyquinazolin-2-yl)-1H-pyrazole-4-carboxylic acid]	–	43%	–
CCN(C)c1nc(-n2cc(C(=O)O)cn2)nc2cc(Cl)c(OC3CCCCC3)cc12 [Example 140, 1-(7-chloro-6-(cyclohexyloxy)-4-(ethyl(methyl)amino)quinazolin-2-yl)-1H-pyrazole-4-carboxylic acid]	7.2	–	29%
CC(C)c1cc2c(N3CCOCC3)nc(-n3cc(C(=O)O)cn3)nc2cc1Cl [Example 160, 1-(7-chloro-6-isopropyl-4-morpholinoquinazolin-2-yl)-1H-pyrazole-4-carboxylic acid]	6.8	–	28%
CC(C)c1cc2c(N(C)C)nc(-n3cc(C(=O)O)cn3)nc2cc1Cl [Example 161, 1-(7-chloro-4-(dimethylamino)-6-isopropylquinazolin-2-yl)-1H-pyrazole-4-carboxylic acid]	7.4	–	32%
CCN(CC)c1nc(-n2cc(C(=O)O)cn2)nc2cc(Cl)c(C(C)C)cc12 [Example 162, 1-(7-chloro-4-diethylamino-6-isopropylquinazolin-2-yl)-1H-pyrazole-4-carboxylic acid]	7.2	–	40%
CC(C)c1cc2c(N3CCCC3)nc(-n3cc(C(=O)O)cn3)nc2cc1Cl [Example 163, 1-(7-chloro-4-(pyrrolidin-1-yl)-6-isopropylquinazolin-2-yl)-1H-pyrazole-4-carboxylic acid]	7.3	–	26%
CCN(C)c1nc(-n2cc(C(=O)O)cn2)nc2cc(Cl)c(C(C)C)cc12 [Example 164, 1-(7-chloro-4-(ethyl(methyl)amino)-6-isopropylquinazolin-2-yl)-1H-pyrazole-4-carboxylic acid]	7.4	–	57%
CC(C)c1cc2c(NC3CC3)nc(-n3cc(C(=O)O)cn3)nc2cc1Cl [Example 165, 1-(7-chloro-4-(cyclopropylamino)-6-isopropylquinazolin-2-yl)-1H-pyrazole-4-carboxylic acid]	7.0	–	24%
O=C(O)c1cnn(-c2nc(N3CCOCC3)c3cc(OC4CCCCC4)ccc3n2)c1 [Example 172, 1-(6-(cyclohexyloxy)-4-morpholinoquinazolin-2-yl)-1H-pyrazole-4-carboxylic acid]	6.4	–	18%
CN(C)c1nc(-n2cc(C(=O)O)cn2)nc2ccc(OC3CCCCC3)cc12 [Example 173, 1-(6-(cyclohexyloxy)-4-(dimethylamino)quinazolin-2-yl)-1H-pyrazole-4-carboxylic acid]	7.4	–	62%
O=C(O)c1cnn(-c2nc(NC3CC3)c3cc(OC4CCCCC4)ccc3n2)c1 [Example 176, 1-(6-(cyclohexyloxy)-4-(cyclopropylamino)quinazolin-2-yl)-1H-pyrazole-4-carboxylic acid]	6.8	–	35%
CCN(C)c1nc(-n2cc(C(=O)O)cn2)nc2ccc(OC3CCCCC3)cc12 [Example 177, 1-(6-(cyclohexyloxy)-4-(ethyl(methyl)amino)quinazolin-2-yl)-1H-pyrazole-4-carboxylic acid]	7.3	–	56%
CC(C)c1ccc2nc(-n3cc(C(=O)O)cn3)nc(N3CCOCC3)c2c1 [Example 184, 1-(4-(morpholino)-6-isopropylquinazolin-2-yl)-1H-pyrazole-4-carboxylic acid]	5.7	–	24%
CC(C)c1ccc2nc(-n3cc(C(=O)O)cn3)nc(N(C)C)c2c1 [Example 185, 1-(4-(dimethylamino)-6-isopropylquinazolin-2-yl)-1H-pyrazole-4-carboxylic acid]	7.0	–	62%
CCN(CC)c1nc(-n2cc(C(=O)O)cn2)nc2ccc(C(C)C)cc12 [Example 186, 1-(4-(diethylamino)-6-isopropylquinazolin-2-yl)-1H-pyrazole-4-carboxylic acid]	7.0	–	43%
CC(C)c1ccc2nc(-n3cc(C(=O)O)cn3)nc(N3CCCC3)c2c1 [Example 187, 1-(6-isopropyl-4-(pyrrolidin-1-yl)quinazolin-2-yl)-1H-pyrazole-4-carboxylic acid]	6.8	–	28%
CC(C)c1ccc2nc(-n3cc(C(=O)O)cn3)nc(NC3CC3)c2c1 [Example 188, 1-(4-(cyclopropylamino)-6-isopropylquinazolin-2-yl)-1H-pyrazole-4-carboxylic acid]	6.0	–	35%
CCN(C)c1nc(-n2cc(C(=O)O)cn2)nc2ccc(C(C)C)cc12 [Example 189, 1-(6-isopropyl-4-(ethyl(methyl)amino)quinazolin-2-yl)-1H-pyrazole-4-carboxylic acid]	6.8	–	36%

Source: patent US10246442B2, “4-Aminoquinazolin compounds as prolyl hydroxylase inhibitors” (JANSSEN PHARMACEUTICA NV, priority 2011, dated 2019)
